Values quoted from earlier work in US20090012010A1, “Amino acid derivatives as calcium channel blockers” (Neuromed Phramaceuticals Ltd., priority 2007, published 2009).

System: T-type calcium channels

COCC(=O)O[C@]1(CCN(C)CCCc2nc3ccccc3[nH]2)CCc2cc(F)ccc2[C@@H]1C(C)C [Mibefradil]
fold selective for T-type over L-type channels: 10-30 fold
